How the values were obtained:
Type in all cases: cell-based
[1] = test system: human hepatic stellate cells LX-2; experiment: Anti-fibrosis activity test: inhibition of proliferation of human hepatic stellate cells LX-2 (CCK-8); conditions: human hepatic stellate cells LX-2, CCK-8, 48 hours
Description: (§1) BHK-21 cells in exponential growth phase were selected. After the fusion growth reached 85-95%, normal passage method was utilized to digest and collect the cells, followed by cell counting and adjusting the cell density to 2×10^4 cells/mL. The cells were seeded into 96-well plates, 100 μL/well, and were incubated under the condition of 5% CO2 at 37° C.
(§2) The supernatant was removed after the cells had adhered to the wall for 24 hours. The culture solution containing the prepared compounds at different concentrations were added to the wells, 100 μL/well, each concentration in triplicate. The cells were subcultured for 48 hours after administration. Commercially available pirfenidone was employed as the positive control.
(§3) 10 μL of CCK-8 solution ( 1/10 of the volume of the culture solution) was added to each well 48 hours after the administration, and incubated for 2 hours. The absorbance (A) of each well was determined by a microplate reader at 450 nm wavelength. The inhibition rate against cell proliferation for each compound was calculated based on A, wherein inhibition rate against cell proliferation (inhibition ratio, IR)=(1−value of experimental group (Ai)/value of blank control group (Ao))×100% and the IC50 value of each compound was calculated by the data processing software.
(§4) Using the same protocol for the cell experiments, the inhibitory activity of the test compounds against the proliferation of human lung fibroblasts HFL1, human hepatic stellate cells LX-2, human fibrosarcoma cells HT-1080, human dermal fibroblasts CCC-ESF-1, human embryonic lung fibroblast IMR-90, cardiac fibroblast RAT-iCell-C002 was assayed.

[2] = test system: human fibrosarcoma cells HT-1080; experiment: Anti-fibrosis activity test: inhibition of proliferation of human fibrosarcoma cells HT-1080 (CCK-8); conditions: human fibrosarcoma cells HT-1080, CCK-8, 48 hours
Description: as §1, §2, §3, §4

[3] = test system: human embryonic lung fibroblast IMR-90; experiment: Anti-fibrosis activity test: inhibition of proliferation of human embryonic lung fibroblast IMR-90 (CCK-8); conditions: human embryonic lung fibroblast IMR-90, CCK-8, 48 hours
Description: as §1, §2, §3, §4

[4] = test system: human lung fibroblasts HFL1; experiment: Anti-fibrosis activity test: inhibition of proliferation of human lung fibroblasts HFL1 (CCK-8); conditions: human lung fibroblasts HFL1, CCK-8, 48 hours
Description: as §1, §2, §3, §4

[5] = test system: cardiac fibroblast RAT-iCell-C002; experiment: Anti-fibrosis activity test: inhibition of proliferation of cardiac fibroblast RAT-iCell-C002 (CCK-8); conditions: Cardiac fibroblast, 48 h, cardiac fibroblast RAT-iCell-C002, CCK-8, 48 hours
Description: as §1, §2, §3, §4

BHK-21 cells = experiment: Anti-fibrosis activity test: inhibition of BHK-21 cell proliferation (CCK-8)
Description: as §1, §2, §3

[6] = test system: human dermal fibroblasts CCC-ESF-1; experiment: Anti-fibrosis activity test: inhibition of proliferation of human dermal fibroblasts CCC-ESF-1 (CCK-8); conditions: human dermal fibroblasts CCC-ESF-1, CCK-8, 48 hours
Description: as §1, §2, §3, §4

[7] = Mesocricetus auratus, BHK-21, 48 h, CCK-8, 48 hours after administration
[8] = CCK-8, 48 hours after administration

Compound: O=C(Cn1c2c(c(=O)c3ccccc31)C(=O)n1cccc1-2)c1ccc(C(F)(F)F)cc1 [Compound 91a, 4-(2-Oxo-2-(4-(trifluoromethyl)phenyl)ethyl)-9H-pyrrolizino[1,2-b]quinoline-9,10(4)-dione]
- IC50 [1]: 0.05 to 5 mM
- IC50 [2]: 5 to 20 mM

Compound: CC(C)CCn1c2c(c(=O)c3cc(F)ccc31)C(=O)n1cccc1-2 [Compound 105a, 7-Fluoro-4-isopentyl-9H-pyrrolizino[1,2-b]quinoline-9,10(4H)-dione]
- IC50 ([1]; Homo sapiens, 48 h): 0.05 to 5 mM
- IC50 [3]: 0.05 to 5 mM
- IC50 ([4]; Homo sapiens, HFL1, 48 h): 0.05 to 5 mM
- IC50 [5]: 0.05 to 5 mM
- IC50 ([2]; Homo sapiens, HT-1080, 48 h): 0.05 to 5 mM
- IC50 (BHK-21 cells; [7]): 0.05 to 5 mM
- IC50 ([6]; Fibroblast): 0.05 to 5 mM

Compound: CC(C)CCOc1c2c(nc3ccc(F)cc13)-c1cccn1C2=O [Compound 105b, 7-fluoro-9-(isopentyloxy)-10H-pyrrolizino[1,2-b]quinolin-10-one]
- IC50 ([1]; Homo sapiens, 48 h): 0.05 to 5 mM
- IC50 [3]: 0.05 to 5 mM
- IC50 ([4]; Homo sapiens, HFL1, 48 h): 0.05 to 5 mM
- IC50 [5]: 0.05 to 5 mM
- IC50 ([2]; Homo sapiens, HT-1080, 48 h): 0.05 to 5 mM
- IC50 (BHK-21 cells; [7]): 0.05 to 5 mM
- IC50 ([6]; Fibroblast): 0.05 to 5 mM

Compound: O=C1c2c([nH]c3cc(N4CCNCC4)c(F)cc3c2=O)-c2cccn21 [Compound 346a, 7-Fluoro-6-(piperazin-1-yl)-9H-pyrrolizino[1,2-b]quinoline-9,10(4H)-dione]
- IC50 ([1]; Homo sapiens, 48 h): 0.05 to 5 mM
- IC50 [3]: 0.05 to 5 mM
- IC50 ([4]; Homo sapiens, HFL1, 48 h): 0.05 to 5 mM
- IC50 [5]: 0.05 to 5 mM
- IC50 ([2]; Homo sapiens, HT-1080, 48 h): 0.05 to 5 mM
- IC50 (BHK-21 cells; [7]): 0.05 to 5 mM
- IC50 ([6]; Fibroblast): 0.05 to 5 mM

Compound: O=C1c2c(nc3cc(N4CCNCC4)c(F)cc3c2O)-c2cccn21 [Compound 346b, 7-fluoro-9-hydroxy-6-(piperazin-1-yl)-10H-pyrrolizino[1,2-b]quinolin-10-one]
- IC50 ([1]; Homo sapiens, 48 h): 0.05 to 5 mM
- IC50 [3]: 0.05 to 5 mM
- IC50 ([4]; Homo sapiens, HFL1, 48 h): 0.05 to 5 mM
- IC50 [5]: 0.05 to 5 mM
- IC50 ([2]; Homo sapiens, HT-1080, 48 h): 0.05 to 5 mM
- IC50 (BHK-21 cells; [7]): 0.05 to 5 mM
- IC50 ([6]; Fibroblast): 0.05 to 5 mM

Compound: CC(C)CCn1c2c(c(=O)c3cc(F)c(N4CCNCC4)cc31)C(=O)n1cccc1-2 [Compound 347a, 7-Fluoro-4-isopentyl-6-(piperazin-1-yl)-9H-pyrrolizino[1,2-b]quinoline-9,10(4H)-dione]
- IC50 ([1]; Homo sapiens, 48 h): 5 to 20 mM
- IC50 [3]: 0.05 to 5 mM
- IC50 ([4]; Homo sapiens, HFL1, 48 h): 0.05 to 5 mM
- IC50 [5]: 0.05 to 5 mM
- IC50 ([2]; Homo sapiens, HT-1080, 48 h): 0.05 to 5 mM
- IC50 (BHK-21 cells; [7]): 0.05 to 5 mM
- IC50 ([6]; Fibroblast): 0.05 to 5 mM

Compound: CC(C)CCOc1c2c(nc3cc(N4CCNCC4)c(F)cc13)-c1cccn1C2=O [Compound 347b, 7-fluoro-9-(isopentyloxy)-6-(piperazin-1-yl)-10H-pyrrolizino[1,2-b]quinolin-10-one]
- IC50 ([1]; Homo sapiens, 48 h): 0.05 to 5 mM
- IC50 [3]: 0.05 to 5 mM
- IC50 ([4]; Homo sapiens, HFL1, 48 h): 0.05 to 5 mM
- IC50 [5]: 0.05 to 5 mM
- IC50 ([2]; Homo sapiens, HT-1080, 48 h): 0.05 to 5 mM
- IC50 (BHK-21 cells; [7]): 0.05 to 5 mM
- IC50 ([6]; Fibroblast): 0.05 to 5 mM

Compound: O=C1c2c(n(Cc3ccccc3Cl)c3cc(Cl)ccc3c2=O)-c2cccn21 [Compound 510a, 6-Chloro-4-(2-chlorobenzyl)-9H-pyrrolizino[1,2-b]quinoline-9,10(4H)-dione]
- IC50 ([1]; Homo sapiens, 48 h): 0.05 to 5 mM
- IC50 [3]: 0.05 to 5 mM
- IC50 ([4]; Homo sapiens, HFL1, 48 h): 0.05 to 5 mM
- IC50 [5]: 0.05 to 5 mM
- IC50 ([2]; Homo sapiens, HT-1080, 48 h): 0.05 to 5 mM
- IC50 (BHK-21 cells; [7]): < 0.05 mM
- IC50 ([6]; Fibroblast): 0.05 to 5 mM

Compound: O=C1c2c(nc3cc(Cl)ccc3c2OCc2ccccc2Cl)-c2cccn21 [Compound 510b, 6-chloro-9-((2-chlorobenzyl)oxy)-10H-pyrrolizino[1,2-b]quinolin-10-one]
- IC50 ([1]; Homo sapiens, 48 h): 0.05 to 5 mM
- IC50 [3]: 0.05 to 5 mM
- IC50 ([4]; Homo sapiens, HFL1, 48 h): 0.05 to 5 mM
- IC50 [5]: 0.05 to 5 mM
- IC50 ([2]; Homo sapiens, HT-1080, 48 h): 0.05 to 5 mM
- IC50 (BHK-21 cells; [7]): 0.05 to 5 mM
- IC50 ([6]; Fibroblast): 0.05 to 5 mM

Compound: N#Cc1ccc2nc3c(c(OCc4ccc(-c5ccccc5C#N)cc4)c2c1)C(=O)n1cccc1-3 [Compound 629b, 9-((2′-cyano-[1,1′-biphenyl]-4-yl)methoxy)-10-oxo-10H-pyrrolizino[,2-b]quinoline-7-carbonitrile]
- IC50 (BHK-21 cells; [8]): 0.05 to 5 mM
- IC50 [6]: 0.05 to 5 mM

Compound: O=C1c2c(n(Cc3ccc(F)cc3F)c3cc(N4CCNCC4)ccc3c2=O)-c2cccn21 [Compound 630a, 4-(2,4-Difluorobenzyl)-6-(piperazin-1-yl)-9H-pyrrolizino[1,2-b]quinoline-9,10(4H)-dione]
- IC50 [4]: < 0.05 mM
- IC50 (BHK-21 cells; [8]): < 0.05 mM

Compound: O=C1c2c(nc3cc(N4CCNCC4)ccc3c2OCc2ccc(F)cc2F)-c2cccn21 [Compound 630b, 9-((2,4-difluorobenzyl)oxy)-6-(piperazin-1-yl)-10H-pyrrolizino[1,2-b]quinolin-10-one]
- IC50 [4]: 5 to 20 mM
- IC50 (BHK-21 cells; [8]): 0.05 to 5 mM

Compound: O=C1c2c(n(Cc3ccc(Cl)cc3)c3cc(N4CCNCC4)c(F)cc3c2=O)-c2cccn21 [Compound 632a, 4-(4-Chlorobenzyl)-7-fluoro-6-(piperazin-1-yl)-9H-pyrrolizino[1,2-b]quinoline-9,10(4H)-dione]
- IC50 ([1]; Homo sapiens, 48 h): 0.05 to 5 mM
- IC50 [3]: 0.05 to 5 mM
- IC50 ([4]; Homo sapiens, HFL1, 48 h): 0.05 to 5 mM
- IC50 [5]: 0.05 to 5 mM
- IC50 ([2]; Homo sapiens, HT-1080, 48 h): 0.05 to 5 mM
- IC50 (BHK-21 cells; [7]): 0.05 to 5 mM
- IC50 ([6]; Fibroblast): < 0.05 mM

Compound: O=C1c2c(nc3cc(N4CCNCC4)c(F)cc3c2OCc2ccc(Cl)cc2)-c2cccn21 [Compound 632b, 9-((4-chlorobenzyl)oxy)-7-fluoro-6-(piperazin-1-yl)-10H-pyrrolizino[1,2-b]quinolin-10-one]
- IC50 ([1]; Homo sapiens, 48 h): 0.05 to 5 mM
- IC50 [3]: 0.05 to 5 mM
- IC50 ([4]; Homo sapiens, HFL1, 48 h): 0.05 to 5 mM
- IC50 [5]: 0.05 to 5 mM
- IC50 ([2]; Homo sapiens, HT-1080, 48 h): 0.05 to 5 mM
- IC50 (BHK-21 cells; [7]): 0.05 to 5 mM
- IC50 ([6]; Fibroblast): 0.05 to 5 mM

Compound: O=C1c2c(n(Cc3ccc(Br)cc3)c3cc(N4CCNCC4)c(F)cc3c2=O)-c2cccn21 [Compound 633a, 4-(4-Bromobenzyl)-7-fluoro-6-(piperazin-1-yl)-9H-pyrrolizino[1,2-b]quinoline-9,10(4H)-dione]
- IC50 ([1]; Homo sapiens, 48 h): 0.05 to 5 mM
- IC50 [3]: 0.05 to 5 mM
- IC50 ([4]; Homo sapiens, HFL1, 48 h): 0.05 to 5 mM
- IC50 [5]: 0.05 to 5 mM
- IC50 ([2]; Homo sapiens, HT-1080, 48 h): 0.05 to 5 mM
- IC50 (BHK-21 cells; [7]): < 0.05 mM
- IC50 ([6]; Fibroblast): 0.05 to 5 mM

Compound: O=C1c2c(nc3cc(N4CCNCC4)c(F)cc3c2OCc2ccc(Br)cc2)-c2cccn21 [Compound 633b, 9-((4-bromobenzyl)oxy)-7-fluoro-6-(piperazin-1-yl)-10H-pyrrolizino[1,2-b]quinolin-10-one]
- IC50 ([1]; Homo sapiens, 48 h): 0.05 to 5 mM
- IC50 [3]: 0.05 to 5 mM
- IC50 ([4]; Homo sapiens, HFL1, 48 h): 0.05 to 5 mM
- IC50 [5]: 0.05 to 5 mM
- IC50 ([2]; Homo sapiens, HT-1080, 48 h): 0.05 to 5 mM
- IC50 (BHK-21 cells; [7]): 0.05 to 5 mM
- IC50 ([6]; Fibroblast): 0.05 to 5 mM

Compound: O=C1c2c(n(Cc3ccc(F)cc3)c3cc(N4CCNCC4)c(F)cc3c2=O)-c2cccn21 [Compound 634a, 7-Fluoro-4-(4-fluorobenzyl)-6-(piperazin-1-yl)-9H-pyrrolizino[1,2-b]quinoline-9,10(4H)-dione]
- IC50 ([1]; Homo sapiens, 48 h): 0.05 to 5 mM
- IC50 [3]: 0.05 to 5 mM
- IC50 ([4]; Homo sapiens, HFL1, 48 h): 0.05 to 5 mM
- IC50 [5]: 0.05 to 5 mM
- IC50 ([2]; Homo sapiens, HT-1080, 48 h): 0.05 to 5 mM
- IC50 (BHK-21 cells; [7]): 0.05 to 5 mM
- IC50 ([6]; Fibroblast): 0.05 to 5 mM

Compound: O=C1c2c(n(Cc3cc(C(F)(F)F)cc(C(F)(F)F)c3)c3cc(N4CCNCC4)c(F)cc3c2=O)-c2cccn21 [Compound 639a, 4-(3,5-Bis(trifluoromethyl)benzyl)-7-fluoro-6-(piperazin-1-yl)-9H-pyrrolizino[,2-b]quinoline-9,10(4H)-dione]
- IC50 [6]: < 0.05 mM

Compound: Cc1cc2n(c1)C(=O)c1c-2nc2ccccc2c1O [Compound 801b, 9-hydroxy-2-methyl-0H-pyrrolizino[1,2-b]quinolin-10-one]
- IC50 (BHK-21 cells; 48 h, CCK-8): 0.05 to 5 mM

From patent US11040028B2, “Penicinotam derivative, preparation method and use thereof” (OCEAN UNIVERSITY OF CHINA, priority 2017, dated 2021)
